Measured values: publication PMC9127232, “Wound Healing Properties of Jasione montana Extracts and Their Main Secondary Metabolites” (Frontiers in Pharmacology, 2022)
Values joined by “and” are separate entries in the source; they are usually repeats but may differ in a detail not shown here. Equal entries are not always repeated. “Also recorded” adds a separate entry of the source.

Assays:
[1] = system: IL-8 in fibroblast cells (PCS-201-012); assay: Cytometric Bead Array, IL-8 secretion; assay type: cell-based, human; conditions: 24 h
Procedure: (§1) The normal human dermal fibroblast cell line (PCS-201-012) was cultured in DMEM blended with 10% fetal bovine serum (FBS), 10 μg/mL streptomycin, and 10 units/mol penicillin. The cells were cultured in 5% CO2 and fully humidified at 37°C. All tested compounds were dissolved at a final vehicle (DMSO) concentration of not more than 0.5% (v/v). Cells cultured in drug-free DMEM were used as controls, and cells treated with DMSO alone were used as solvent controls. All extracts (JM1–JM6) and the main components of the tested extracts (9, 12, and 22) were analyzed at the following concentrations: 10, 25, 50, 100, 200, and 300 μg/mL. The effect of the tested extracts and fractions (JM1–JM6) as well as 9, 12, and 22 on cytokine (IL-1β, IL-6 IL-8, IL-10, IL-12p70 and TNF) secretion was determined using the Cytometric Bead Array (CBA) Human Inflammatory Cytokine Kit according to the manufacturer’s protocols. After 24 h of incubation with the test samples at concentrations of 10, 25, 50, 100, 200, and 300 μg/mL, fibroblast cells were washed with PBS, trypsinized, resuspended in DMEM and centrifuged (1,200 rpm, 10 min, 4°C). The supernatant was then replaced with 50 μL of assay diluent with the addition of 50 μL of assay beads and 50 μL of PE-labeled antibodies (detection reagent) from the human inflammatory cytokine kit. Incubation was performed for 3 h at room temperature without daylight, after which the fibroblast cells were washed and centrifuged (1,200 rpm, 5 min, 4°C). The cell pellet was resuspended in 300 μL of wash buffer and then immediately subjected to analysis by FCAP Array v3 software on a BD FACSCanto II flow cytometer (both from BD Biosciences Systems, San Jose, CA, United States) calibrated with BD Cytometer Setup and Tracking beads (BD Biosciences, San Diego, CA, United States).

[2] = system: normal human dermal fibroblast cell line (PCS-201-012); assay: Scratch proliferation and migration assay; assay type: cell-based; conditions: 24 h; for cell migration into the injured area: up to 100 μg/mL
Procedure: The normal human dermal fibroblast cell line (PCS-201-012) was cultured in DMEM blended with 10% fetal bovine serum (FBS), 10 μg/mL streptomycin, and 10 units/mol penicillin. The cells were cultured in 5% CO2 and fully humidified at 37°C. All tested compounds were dissolved at a final vehicle (DMSO) concentration of not more than 0.5% (v/v). Cells cultured in drug-free DMEM were used as controls, and cells treated with DMSO alone were used as solvent controls. All extracts (JM1-JM6) and the main components of the tested extracts (9, 12, and 22) were analyzed at the following concentrations: 10, 25, 50, 100, 200, and 300 μg/mL. The in vitro wound healing activity of J. montana extracts and isolated compounds was determined by a scratch assay, which is a model of a wound in which monolayer skin cells, including fibroblasts, react to the disruption of contact between cells and stimulate proliferation and migration by modulating the concentration of growth factors and cytokines at the edge wounds ([Liang et al., 2007]). For this purpose, fibroblast cells were seeded at a density of 2.5 × 10^5 in 6-well cell culture dishes and incubated for 24 h at 37°C. After incubation, a linear scratch was made with a universal sterile 200 μL pipette tip. Cells were incubated with the tested extracts (JM1-JM6) and compounds (9, 12, and 22) at concentrations of 10, 25, 50, 100, 200 and 300 μg/mL for 24 h at 37°C. Allantoin, a plant-derived commercialized drug, was used as the positive control at a concentration of 50 μg/mL to judge the rate of cell migration ([[…] et al., 2020]). After incubation, the migrated cells were washed twice with PBS and observed under a phase contrast microscope. The progress of migration, proliferation and closing of the wound before and after treatment with the tested samples was monitored by imaging with a phase contrast microscope (Nikon Eclipse Ti, Tokyo, Japan) at × 100 magnification and NIS-Elements 3.0 imaging software (Nikon Instruments Inc., Melville, NY, United States).

[3] = system: collagen type I in fibroblast cells (PCS-201-012); assay: Collagen type I biosynthesis by flow cytometry; assay type: cell-based, human; conditions: for collagen type I content, median fluorescence intensity (MFI): 24 h
Procedure: The normal human dermal fibroblast cell line (PCS-201-012) was cultured in DMEM blended with 10% fetal bovine serum (FBS), 10 μg/mL streptomycin, and 10 units/mol penicillin. The cells were cultured in 5% CO2 and fully humidified at 37°C. All tested compounds were dissolved at a final vehicle (DMSO) concentration of not more than 0.5% (v/v). Cells cultured in drug-free DMEM were used as controls, and cells treated with DMSO alone were used as solvent controls. All extracts (JM1–JM6) and the main components of the tested extracts (9, 12, and 22) were analyzed at the following concentrations: 10, 25, 50, 100, 200, and 300 μg/mL. The effect of the tested extracts and fractions (JM1–JM6), as well as their main compounds (9, 12, and 22) on collagen type I biosynthesis was determined using a method of cytometric staining of the surface anti-collagen type I according to the manufacturer’s protocols. Fibroblasts were incubated for 24 h at 37°C with the test samples at concentrations of 10, 25, 50, 100, 200, and 300 μg/mL. Allantoin (50 μg/mL) was used as a positive control. After incubation, fibroblasts were washed with PBS, trypsinized, resuspended in DMEM and centrifuged (1,200 rpm, 10 min, 4°C). The supernatant was removed, and the cells were washed with 2 mL of stain buffer. Then, the cells were incubated for 30 min on ice with 100 µL of stain buffer and 1 µL of antibody. After complete incubation, 2 mL of stain buffer was added. After consecutive centrifugation (1,200 rpm, 10 min, 4°C), the supernatant was removed, the cells were resuspended in 300 µL of buffer and then immediately subjected to analysis on a flow cytometer (BD FACSCanto II flow cytometer, San Jose, CA, United States) calibrated with BD Cytometer Setup and Tracking beads (BD Biosciences, San Diego, CA, United States). The median fluorescence intensity was calculated using FACSDiva software (BD Biosciences Systems, San Jose, CA, United States) and analyzed by FCS Express 7 software (DeNovo Software, Pasadena, CA, United States).

[4] = Ferric reducing antioxidant potential (FRAP); conditions: for FRAP: 1 h at 37°C, 594 nm
Procedure: Determination of the ferric reducing antioxidant potential (FRAP) was performed using a ferric reducing antioxidant power assay kit. Ten microliters of each sample (JM1–JM6, 9, 12, 22) was mixed with 190 µL of supplied reaction mix (FRAP assay buffer, FeCl3 solution, FRAP probe). The absorbance was measured after 1 h of incubation at 37°C at 594 nm using a microplate reader. A blank solution contained 10 µL of MeOH instead of extract/compound solution. For further calculations, the ferrous standard curve was evaluated. The values are given as mM ferrous equivalents. All tests were executed in triplicate.

[5] = system: IL-6 in fibroblast cells (PCS-201-012); assay: Cytometric Bead Array, IL-6 secretion; assay type: cell-based, human; conditions: 24 h
Procedure: as §1

[6] = DPPH radical-scavenging assay; conditions: for DPPH, IC50: 30 min, absorbance 517 nm, mean ± SD; for antiradical potential in the DPPH method compared with Trolox: vs positive control Trolox IC50 58.6 ± 0.1 μg/mL
Procedure: All extracts (JM1–JM6) and main components of the tested extracts (9, 12, and 22) were isolated and identified as previously described ([Juszczak et al., 2021]). A total of 130 μL of sample solution at various concentrations was mixed with 70 μL of DPPH (0.2 mg/mL) in a 96-well plate. Then, the reaction mixture was incubated in the dark at room temperature. After 30 min, the absorbance was recorded at 517 nm using a microplate reader (BioTek Instruments microplate spectrophotometer EPOCH 2, Oxfordshire, United Kingdom). A blank solution was prepared by mixing methanol and DPPH solution. Trolox was used as a positive control. The experiment was performed in triplicate. RSA(%)=(C-S)/C×100% where C is the negative control and S is the sample. Concentration of the tested samples, which scavenges 50% of free radicals present in the solution (IC50), was calculated.

[7] = biological target: porcine pancreatic elastase (Sus scrofa, UniProt P00772); assay: Elastase inhibitory activity; assay type: biochemical; conditions: for anti-elastase activity (in words): extracts 100–600 μg/mL, compounds 10–200 μg/mL
Procedure: The measurement of elastase inhibition was modified slightly according to a previous method ([Wittenauer et al., 2015]). The procedure was performed in 100 mM Tris buffer (pH = 8.0). Briefly, 100 µL of extracts (JM1–JM6) (100–600 μg/mL) or compounds (9, 12, and 22) (10–200 μg/mL) and 100 µL of Tris buffer were mixed with 25 µL of porcine pancreatic elastase solution (0.05 mg/mL). Then, the mixtures were preincubated at 25°C for 5 min, and 70 µL of AAAPVN (0.4 mg/mL) was added. After another 15 min of incubation, the release of p-nitroaniline was monitored at 410 nm using a microplate reader. A blank solution was prepared by using buffer instead of sample solution. […] The calculations were performed as follows: ElInh(% )=(C-S)/C×100% where C is the negative control and S is the sample.

[8] = system: dermal fibroblast cells; parameters: method as in Juszczak et al., 2021; conditions: ref Juszczak et al., 2021; cited from earlier work
[9] = system: IL-1β in fibroblast cells (PCS-201-012); assay: Cytometric Bead Array, IL-1β secretion; assay type: cell-based, human; conditions: for IL-1β: BSR = below the standard range (lower than detection limit)
Procedure: as §1

Sequence of porcine pancreatic elastase (P00772 27-266): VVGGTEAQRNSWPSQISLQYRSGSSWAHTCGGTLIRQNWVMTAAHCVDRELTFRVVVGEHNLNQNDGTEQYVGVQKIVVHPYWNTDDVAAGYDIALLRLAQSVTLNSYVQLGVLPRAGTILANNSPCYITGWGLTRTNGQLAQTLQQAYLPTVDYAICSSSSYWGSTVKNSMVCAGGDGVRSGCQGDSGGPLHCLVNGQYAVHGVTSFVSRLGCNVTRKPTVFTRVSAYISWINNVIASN

Compound | DPPH, IC50 [6] | IL-8 levels (in words) ([1]; 100–300 μg/mL) | cell migration into the injured area [2] | collagen type I content, median fluorescence intensity (MFI) ([3]; 300 μg/mL, control 1,507 ± 9.2) | FRAP [4] [mM Fe^2+eq/mL] | concentration at which the highest increase in IL-6 secretion occurred [5] [µg/mL] | antiradical potential in the DPPH method compared with Trolox [6] | anti-elastase activity (in words) [7] | cytotoxicity on dermal fibroblast cells (in words) [8] | FRAP / reducing power [4] [mM Fe^2+/mL] | further results
O=c1cc(-c2ccc(O)c(O)c2)oc2cc(O[C@@H]3O[C@H](CO)[C@@H](O)[C@H](O)[C@H]3O[C@@H]3OC[C@@H](O)[C@H](O)[C@H]3O)cc(O)c12 [Compound 9, luteolin 7-O-β-D-xylosyl-(1-2)-β-D-glucoside] | 20.34 ± 0.8 µg/mL | reduced IL-8 levels | significantly increased | 1763 ± 58 | 60.59 ± 0.46 | 100 | stronger antiradical potential | no significant inhibitory activity; also recorded: not active |  |  | IL-8 levels (in words) ([1]; 10–100 μg/mL): significant increase; effectiveness in the scratch test ([2]; 50 μg/mL, comparable with allantoin 50 μg/mL): most effective
NC(=O)NC1NC(=O)NC1=O (centres unmarked) [allantoin, reference compound] |  |  |  |  |  |  |  |  |  |  | IL-8 expression (in words) ([1]; 50 μg/mL, positive control): decrease in IL-8 expression; collagen type I content, median fluorescence intensity (MFI) ([3]; 50 μg/mL, control 1822 ± 62.2): 1,494 ± 2.8; IL-6 (in words) ([5]; 50 μg/mL, positive control): upregulation of IL-6; IL-1β levels (in words) ([9]; 50 μg/mL, 24 h, positive control): stimulation of proinflammatory IL-1β levels

Further lines, with some results ahead:

DPPH, IC50 [6] | Compound | IL-8 levels (in words) ([1]; 100–300 μg/mL) | cell migration into the injured area [2] | collagen type I content, median fluorescence intensity (MFI) ([3]; 300 μg/mL, control 1,507 ± 9.2) | FRAP [4] [mM Fe^2+eq/mL] | concentration at which the highest increase in IL-6 secretion occurred [5] [µg/mL] | antiradical potential in the DPPH method compared with Trolox [6] | anti-elastase activity (in words) [7] | cytotoxicity on dermal fibroblast cells (in words) [8] | FRAP / reducing power [4] [mM Fe^2+/mL] | further results
16.6 ± 0.7 µg/mL and 16.59 ± 0.7 µg/mL | O=c1cc(-c2ccc(O)c(O)c2)oc2cc(O[C@@H]3O[C@H](CO)[C@@H](O)[C@H](O)[C@H]3O)cc(O)c12 [Compound 12, luteolin 7-O-β-D-glucoside] | reduced IL-8 levels | significantly increased | 1717 ± 10.6 | 51.88 ± 0.53 | 100 | stronger antiradical potential | no significant inhibitory activity; also recorded: not active | did not show strong cytotoxicity | 51.9 ± 0.5 | 
10.6 ± 0.7 µg/mL and 10.65 ± 0.7 µg/mL | O=c1cc(-c2ccc(O)c(O)c2)oc2cc(O)cc(O)c12 [Compound 22, 5,7,3',4'-tetrahydroxyflavone] |  |  |  | 51.81 ± 0.78 |  | stronger antiradical potential |  | toxicity at the higher concentrations tested | 60.59 ± 0.5 | IL-8 level ([1]; 300 μg/mL, control 8,396.8 ± 2,771.1 pg/mL): 60.8 ± 8 pg/mL; IL-8 expression (in words) ([1]; 10–300 μg/mL): decrease in its expression was most pronounced; stimulation of fibroblast migration ([2]; only at 10 μg/mL): capable of stimulating cells only at a low concentration; collagen content in fibroblast cells (in words) ([3]; 10 μg/mL): decrease in collagen content; IL-6 expression levels (in words) ([5]; 10–300 μg/mL, vs untreated control): dose-dependent decrease; IC50 ([7]; Tris buffer pH 8.0, substrate AAAPVN, 410 nm): 139 µM; IL-1β level ([9]; 100 μg/mL, 24 h, control 13.4 ± 5.6 pg/mL): 1.7 ± 1.1 pg/mL; IL-1β ([9]; 200 μg/mL): BSR; IL-1β ([9]; 300 μg/mL): BSR; IL-1β expression (in words) ([9]; 200–300 μg/mL, 24 h): below the sensitivity of the method; secretion of IL-1β (in words) ([9]; all tested concentrations 10–300 μg/mL, 24 h): highest decrease
58.6 ± 0.1 µg/mL | Cc1c(C)c2c(c(C)c1O)CCC(C)(C(=O)O)O2 (centres unmarked) [Trolox, reference compound] |  |  |  |  |  |  |  |  |  | 
